Patent US9096538B2, “Pharmaceutical comprising PPAR agonist” (Senju Pharmaceutical Co., Ltd., priority 2005, dated 2015)

Tests used:
[1] = test system: monkey meibomian gland epithelial cell; test: Test Example 3: increase in cell number, cultured monkey meibomian gland epithelial cell (Cell Counting Kit-8); type: cell-based, cynomolgus monkey; settings: 48 + 48 hours; for Cell proliferation (%): no addition group = 100%, average ± standard deviation, N = 5
Experimental: A female cynomolgus monkey (Environmental Biological Life Science Research Center) was used. The experimental animal was used according to the International Guiding Principles for Biomedical Research Involving Animals.
A meibomian gland epithelial cell was prepared from a monkey eyelid. An eyelid was isolated, and stored in Dulbecco's phosphate buffered saline (D-PBS; Invitrogen), and this was transferred to a clean bench. The following cell preparation procedures were all performed sterilely.
After the isolated eyelid was immersed in 80% ethanol for 30 seconds, the eyelid was washed with D-PBS with 1% penicillin-streptomycin (Invitrogen) added thereto three times, and transferred to a minimum essential medium (MEM; Invitrogen). A fat tissue and a muscle tissue surrounding a meibomian gland tissue were removed under a stereomicroscope, and this was transferred to MEM containing 0.475 U/mL of collagenase A (Roche Diagnostics) and 2.4 U/mL of dispase II (Roche Diagnostics), and incubated at 37° C. overnight. After completion of incubation, the enzyme-treated tissue was placed again under the stereomicroscope, eyelashes and an eyelid connective tissue were removed, and a meibomian gland tissue was isolated. To the isolated gland tissue was added 1 mL of trypsin-EDTA (Invitrogen), and this was incubated at 37° C. for 5 minutes. After incubation, to this was added 9 mL of MEM containing 10% FBS to stop the enzymatic reaction, then, suction and exhaustion were repeated five times using a 10 mL pipette and, further, five times using an injection syringe equipped with a 21 G injection needle to disperse tissue-constituting cells. […] The cell suspension which had passed through the filter was recovered in a 50 mL centrifuge tube, and subjected to centrifugation at room temperature and 1,500 rpm for 5 minutes. To a cell layer containing an objective cell obtained by centrifugation was added 80 μL of D-PBS containing 0.5% bovine serum albumin (BSA; Sigma-Aldrich) to sufficiently suspend the cell, to this was added 20 μL of Anti-Fibroblast Microbeads (Militenyi Biotec), and this was allowed to stand at room temperature for 30 minutes. After completion of the reaction with an antibody, to this was added 2 mL of D-PBS containing 0.5% BSA, and this was subjected again to centrifugation at room temperature and 1,500 rpm for 5 minutes. To a cell layer containing an objective cell obtained by centrifugation was added 1 mL of D-PBS containing 0.5% BSA to sufficiently suspend the cell, and this was added dropwise to an LD column (Militenyi Biotec) equilibrated in advance using a column washing solution (D-PBS containing 2 mM EDTA (Dojindo Laboratories) and 0.5% BSA). Then, 2 mL of the column washing solution was added dropwise to the LD column. […] The cell recovered in the centrifuge tube was subjected again to centrifugation at room temperature and 1,500 rpm for 5 minutes to remove the supernatant. To this precipitation was added 1 mL of Defined Keratinocyte-Serum Free Medium (DK-SFM; Invitrogen) to suspend the cell and thereby, a meibomian gland epithelial cell suspension was prepared. The prepared cell was seeded on a culture dish (IWAKI) for cell culturing having a diameter of 3.5 cm which had been coated with a type I collagen solution (Nitta Gelatin Inc.) in advance, and to which 3 mL of DK-SFM had been added. The seeded cell was cultured in an incubator (SANYO) set at 37° C., 5% CO2, 95% air, and 100% humidity, and the culture medium was exchanged with a fresh culture medium every 48 hours until the test day.
Each test substance was dissolved in ethanol (Wako Pure Chemical Industries, Ltd.) to a 200-fold concentration of a final concentration in the culture medium, and this was stored at −80° C. until immediately before use.
As a culture dish for a cell proliferation promotion test, a 96-well culture dish for tissue culture (Corning) was used.

[2] = test system: monkey meibomian gland epithelial cell; test: Test Example 8: increase in number of monkey meibomian gland epithelial cells (Cell Counting Kit-8); type: cell-based; settings: 3 x 48 hours; for Cell proliferation (%): no addition group = 100%, average ± standard deviation, N = 5
Text: For studying the effect of promoting cell proliferation by each test substance, a culture medium prepared by removing the supplement attached to DK-SFM, from DK-SFM, was used as a basal medium, while as a positive control for confirming the cell proliferation promoting effect, a culture medium with the supplement added thereto (basal medium+supplement) was used according to instructions of an DK-SFM preparation protocol. […] In the test, a monkey meibomian gland epithelial cell which had been cultured to subconfluent, suspended in a cell banker (Nippon Zenyaku Kogyo Co., Ltd.), and cryopreserved in liquid nitrogen was used. The cell which had been cryopreserved was thawed, and transferred to a 50 mL centrifuge tube and a 10-fold amount of DK-SFM was added thereto. […] Each 64 μL of this cell suspension was dispensed into each well so that the cell number per bottom area (0.32 cm^2) of the collagen-treated 96-well culture dish for tissue culture became 4×10^4 cells/cm^2. […] After 48 hours from initial culture medium exchange, the culture medium was exchanged with a freshly prepared culture medium of each of [1] to [4]. Further, after 48 hours therefrom, the culture medium was exchanged again with a freshly prepared culture medium of each of [1] to [4].

[3] = test system: normal human corneal epithelial cell; test: Test Example 5: increase in cell number, normal human corneal epithelial cell, 24 hours (Cell Counting Kit-8); type: cell-based; settings: no addition group = 100%, average ± standard deviation, N = 3 to 4
Experimental: A normal human corneal epithelial cell (KURABO) was used.
As the test substance, the following compounds were used. PPARδ agonist: L-165041 (Sigma-Aldrich), GW-501516 (Alexis)
In addition, as a positive control for confirming the cell proliferation promoting effect, a medium in which a mouse-derived epithelial growth factor (mEGF) contained in an HCGS proliferation additive set (KURABO) was added to a basal medium (basal medium+1 ng/mL mEGF) was used.
This cell suspension was seeded on a fibronectin-coated multiwell plate (24 well, BECTON DICKINSON) so that the cell number became 2×10^4 cells/500 μL/well (since the bottom area is 2 cm^2, the number is 1×10^4 cells/cm^2).
Further, 24 hours thereafter, the culture medium was exchanged with each 400 μL of the following culture media. • [1] Only basal medium (no addition group) • [2] Basal medium+mEGF (final concentration: 1 ng/mL; positive control group) • [3] Basal medium+L-165041 (final concentration: 0.01 μM and 0.1 μM) • [4] Basal medium+GW-501516 (final concentration: 0.001 μM and 0.01 μM)

In the case of `CCCc1c(OCCCOc2ccc(OCC(=O)O)cc2)ccc(C(C)=O)c1O` [L-165041, (4-(3-(4-acetyl-3-hydroxy-2-propyl)phenoxy)propoxyphenoxy)acetic acid], the “Cell proliferation (%)” value ([1]; 10^−6 M) is reported as 142.8 ± 5.4%, the “Cell proliferation (%)” value ([1]; 10^−7 M) is reported as 136.1 ± 4.7% and the “cell proliferation compared to the no addition group (in words)” value ([1]; p<0.01 where significant) is reported as “significantly higher than in the no addition group”. For the same compound, the “cell proliferation compared to the no addition group (in words)” value ([2]; 10^−6 M) was “significantly higher than in the no addition group”, the “Cell proliferation (%)” value ([2]; 10^−6 M) was 169.1 ± 19.6% and the “Cell proliferation (%)” value ([2]; 10^−7 M) was 142.9 ± 22.3%. For the same compound, the “Cell proliferation (%)” value ([3]; 10^−7 M) was 127.8 ± 6.0% and the “Cell proliferation (%)” value ([3]; 10^−8 M) was 128.1 ± 5.3%.
